Source: PubChem BioAssay (NCI)
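Tested at 5 concentrations; 48 h exposure; 96-well plates; endpoints linearly interpolated, else capped at highest concentration. TGI denotes the concentration required for complete inhibition of growth.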

How the values were obtained:
Test in all cases: NCI-60 cell line screen, 48 h
HCT-116 colon = test system: HCT-116 colon
HCT-15 colon = test system: HCT-15 colon
MDA-N = test system: MDA-N
M14 melanoma = test system: M14 melanoma
HT29 colon = test system: HT29 colon
SK-MEL-5 melanoma = test system: SK-MEL-5 melanoma
SW-620 colon = test system: SW-620 colon
TK-10 renal = test system: TK-10 renal
OVCAR-3 ovarian = test system: OVCAR-3 ovarian
UACC-62 melanoma = test system: UACC-62 melanoma
KM12 colon = test system: KM12 colon
SF-295 CNS = test system: SF-295 CNS
T-47D breast = test system: T-47D breast
OVCAR-8 ovarian = test system: OVCAR-8 ovarian
U251 CNS = test system: U251 CNS
HOP-62 NSCLC = test system: HOP-62 NSCLC
HCC-2998 colon = test system: HCC-2998 colon
SF-539 CNS = test system: SF-539 CNS
SN12C renal = test system: SN12C renal
BT-549 breast = test system: BT-549 breast
MDA-MB-435 = test system: MDA-MB-435
ACHN renal = test system: ACHN renal
MCF7 breast = test system: MCF7 breast
HOP-92 NSCLC = test system: HOP-92 NSCLC
MOLT-4 leukemia = test system: MOLT-4 leukemia
RXF 393 renal = test system: RXF 393 renal
SNB-19 CNS = test system: SNB-19 CNS
EKVX NSCLC = test system: EKVX NSCLC
UO-31 renal = test system: UO-31 renal
A498 renal = test system: A498 renal
PC-3 prostate = test system: PC-3 prostate
NCI-H226 lung = test system: NCI-H226 lung
OVCAR-5 ovarian = test system: OVCAR-5 ovarian
DU-145 prostate = test system: DU-145 prostate
SR leukemia = test system: SR leukemia
HL-60(TB) leukemia = test system: HL-60(TB) leukemia
NCI-H460 lung = test system: NCI-H460 lung
UACC-257 melanoma = test system: UACC-257 melanoma
RPMI-8226 leukemia = test system: RPMI-8226 leukemia
NCI/ADR-RES ovarian = test system: NCI/ADR-RES ovarian
SK-OV-3 ovarian = test system: SK-OV-3 ovarian
SNB-75 CNS = test system: SNB-75 CNS
NCI-H23 lung = test system: NCI-H23 lung
SK-MEL-2 melanoma = test system: SK-MEL-2 melanoma
CCRF-CEM leukemia = test system: CCRF-CEM leukemia
IGROV1 ovarian = test system: IGROV1 ovarian
A549 NSCLC = test system: A549 NSCLC
MDA-MB-231 breast = test system: MDA-MB-231 breast
SK-MEL-28 melanoma = test system: SK-MEL-28 melanoma
786-0 renal = test system: 786-0 renal
NCI-H522 lung = test system: NCI-H522 lung
MALME-3M melanoma = test system: MALME-3M melanoma
K-562 leukemia = test system: K-562 leukemia
LOX IMVI melanoma = test system: LOX IMVI melanoma
COLO 205 colon = test system: COLO 205 colon
OVCAR-4 ovarian = test system: OVCAR-4 ovarian
HS 578T breast = test system: HS 578T breast
CAKI-1 renal = test system: CAKI-1 renal
SF-268 CNS = test system: SF-268 CNS

CCN(CC)CCCC(C)Nc1cc(/C=C/c2ccc(Cl)cc2)nc2cc(N(C)C)ccc12 (stereo not given)
TGI (HCT-116 colon): 2.49 µM | TGI (HCT-15 colon): 3.17 µM | TGI (MDA-N): 3.01 µM | TGI (M14 melanoma): 3.09 µM | TGI (HT29 colon): 2.65 µM | TGI (SK-MEL-5 melanoma): 4.34 µM | TGI (SW-620 colon): 2.69 µM | TGI (TK-10 renal): 3.54 µM | TGI (OVCAR-3 ovarian): 3.49 µM | TGI (UACC-62 melanoma): 6.54 µM | TGI (KM12 colon): 3.26 µM | TGI (SF-295 CNS): 3.33 µM | TGI (T-47D breast): 3.55 µM | TGI (OVCAR-8 ovarian): 3.41 µM | TGI (U251 CNS): 3.19 µM | TGI (HOP-62 NSCLC): 3.4 µM | TGI (HCC-2998 colon): 3.57 µM | TGI (SF-539 CNS): 4.65 µM | TGI (SN12C renal): 3.25 µM | TGI (BT-549 breast): 3.01 µM | TGI (MDA-MB-435): 3.06 µM | TGI (ACHN renal): 4.42 µM | TGI (MCF7 breast): 3.39 µM | TGI (HOP-92 NSCLC): 3.16 µM | TGI (MOLT-4 leukemia): 3.01 µM | TGI (RXF 393 renal): 3.06 µM | TGI (SNB-19 CNS): 3.3 µM | TGI (EKVX NSCLC): 3.34 µM | TGI (UO-31 renal): 3.55 µM | TGI (A498 renal): 3.12 µM | TGI (PC-3 prostate): 2.78 µM | TGI (NCI-H226 lung): 11.6 µM | TGI (OVCAR-5 ovarian): 3.37 µM | TGI (DU-145 prostate): 3.21 µM | TGI (SR leukemia): 2.85 µM | TGI (HL-60(TB) leukemia): 3.54 µM

CC(=O)N=C1N(/C=C2\C(=O)Oc3ccccc3C2=O)C(=O)/C(=C/c2ccccc2Cl)N1C
TGI (NCI-H460 lung): > 100 µM | TGI (HCT-116 colon): > 100 µM | TGI (HCT-15 colon): > 100 µM | TGI (MDA-N): > 100 µM | TGI (UACC-257 melanoma): > 100 µM | TGI (RPMI-8226 leukemia): > 100 µM | TGI (NCI/ADR-RES ovarian): > 100 µM | TGI (M14 melanoma): > 100 µM | TGI (HT29 colon): > 100 µM | TGI (SK-MEL-5 melanoma): > 100 µM | TGI (SK-OV-3 ovarian): > 100 µM | TGI (SW-620 colon): > 100 µM | TGI (UACC-62 melanoma): > 100 µM | TGI (KM12 colon): > 100 µM | TGI (SF-295 CNS): > 100 µM | TGI (SNB-75 CNS): > 100 µM | TGI (T-47D breast): > 100 µM | TGI (NCI-H23 lung): > 100 µM | TGI (SK-MEL-2 melanoma): > 100 µM | TGI (CCRF-CEM leukemia): > 100 µM | TGI (OVCAR-8 ovarian): > 100 µM | TGI (U251 CNS): > 100 µM | TGI (IGROV1 ovarian): > 100 µM | TGI (HOP-62 NSCLC): > 100 µM | TGI (HCC-2998 colon): > 100 µM | TGI (A549 NSCLC): > 100 µM | TGI (SF-539 CNS): > 100 µM | TGI (SN12C renal): > 100 µM | TGI (MDA-MB-231 breast): > 100 µM | TGI (SK-MEL-28 melanoma): > 100 µM | TGI (786-0 renal): > 100 µM | TGI (MDA-MB-435): > 100 µM | TGI (ACHN renal): > 100 µM | TGI (NCI-H522 lung): > 100 µM | TGI (MCF7 breast): > 100 µM | TGI (MALME-3M melanoma): > 100 µM | TGI (K-562 leukemia): > 100 µM | TGI (LOX IMVI melanoma): > 100 µM | TGI (COLO 205 colon): > 100 µM | TGI (OVCAR-4 ovarian): > 100 µM | TGI (MOLT-4 leukemia): > 100 µM | TGI (RXF 393 renal): > 100 µM | TGI (SNB-19 CNS): > 100 µM | TGI (EKVX NSCLC): > 100 µM | TGI (HS 578T breast): 34.9 µM | TGI (A498 renal): 96.7 µM | TGI (PC-3 prostate): > 100 µM | TGI (CAKI-1 renal): > 100 µM | TGI (NCI-H226 lung): > 100 µM | TGI (OVCAR-5 ovarian): > 100 µM | TGI (DU-145 prostate): > 100 µM | TGI (SR leukemia): > 100 µM | TGI (SF-268 CNS): > 100 µM | TGI (HL-60(TB) leukemia): > 100 µM
